Results: US20240067693A1, “POLYPEPTIDES AND USES THEREOF” (MEDIMMUNE LIMITED, priority 2020, published 2024)
Numbered stars: 1 amine (or outer) side, 2 acyl side, 3 side chain; on linkers, the order of the positions; unused ones are H or OH. Bridge positions count the residues as written; N and C are the ends. Square brackets hold non-standard residues; d marks the D form. Side chains are listed from the residue outwards. Peptide text beside a SMILES is read from it. * marks the point of attachment. C18 diacid = O=C(O)CCCCCCCCCCCCCCCCC(=O)*; γGlu = O=C(O)[C@H](CCC(=O)[*:2])N[*:1]; Dab = NCC[C@H](N)C(=O)O; Aib = CC(C)(N)C(=O)O

Columns and labels:
[1] = biological target: T1, human amylin receptor (calcitonin receptor co-expressed with receptor activity modifying protein, RAMP3) (hAMYR3) (Homo sapiens, UniProt O60896+P30988); test: cAMP production in 1321N1 cells with stable recombinant expression of human amylin receptor (hAMYR3); assay type: cell-based; details: for Ratio (selectivity hAMYR vs hCTR, ratio of EC50 values at the two receptors): EC50 hCTR / EC50 hAMYR3; for EC50: cAMP, 1321N1 cells, assay buffer with 0.1% BSA, read-out: EC50 (pM) hAMYR3
T1 construct: expressed in transfected cells
T1 sequence (P30988 25-474): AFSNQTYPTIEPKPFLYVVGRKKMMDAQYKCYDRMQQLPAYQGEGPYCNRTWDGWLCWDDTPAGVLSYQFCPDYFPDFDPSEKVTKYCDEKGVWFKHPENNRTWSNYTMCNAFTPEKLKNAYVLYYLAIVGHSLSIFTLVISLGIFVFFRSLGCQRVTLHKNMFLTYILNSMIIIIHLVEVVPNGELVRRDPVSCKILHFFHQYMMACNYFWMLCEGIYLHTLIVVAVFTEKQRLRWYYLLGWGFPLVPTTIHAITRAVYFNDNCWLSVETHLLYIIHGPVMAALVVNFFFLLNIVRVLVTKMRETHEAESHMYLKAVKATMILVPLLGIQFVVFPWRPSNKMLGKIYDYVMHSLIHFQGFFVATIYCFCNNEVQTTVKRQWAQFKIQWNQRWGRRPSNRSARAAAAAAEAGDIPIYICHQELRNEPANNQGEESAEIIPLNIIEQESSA
T1 sequence (O60896 24-148 partner): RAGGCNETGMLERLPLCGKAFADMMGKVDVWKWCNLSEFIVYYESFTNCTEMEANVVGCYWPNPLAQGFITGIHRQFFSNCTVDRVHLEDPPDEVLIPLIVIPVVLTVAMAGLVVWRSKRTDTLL
Procedure, shortened: (§1)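 Receptor-expressing cells (human receptors in 1321N1, rat receptors in HEK) incubated 30 min at room temperature with peptide in HBSS/HEPES pH 7.4, 0.1% BSA, 0.5 mM IBMX. cAMP read by HTRF; EC50 from 4-parameter fit as % of maximal amylin or calcitonin response.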

[2] = biological target: T2, human calcitonin receptor (hCTR) (Homo sapiens, UniProt P30988); test: cAMP production in 1321N1 cells with stable recombinant expression of human calcitonin receptor (hCTR); assay type: cell-based; details: cAMP, 1321N1 cells, assay buffer with 0.1% BSA; read-out: EC50 (pM) hCTR
T2 construct: expressed in transfected cells
T2 sequence (P30988 25-474): T1 sequence (P30988 25-474)
Procedure, shortened: as §1

[3] = in vivo; details: male, Sprague-Dawley, rat, 20 nmol/kg
[4] = Thioflavin T fibrillation assay; assay type: physicochemical; details: ThT fibrillation assay; peptide 1 mg/mL in 25 mM sodium acetate buffer pH 4.0; 6 days at 37 °C with shaking; >144 h = no increase
Text: Peptide aggregation that form fibrils is an indication of physical instability. Fibril formation in solution poses a significant risk for the stability of injectable peptide drug products. Thioflavin T (ThT) fibrillation assay is a useful tool to assess the aggregation kinetics of a peptide or protein under accelerated and stressed conditions that can be used to forecast the long-term viability of a compound in solution. ThT can selectively bind amyloid fibrils and the resultant complex emits strong fluorescence signal at 482 nm when excited at 450 nm (Anal Biochem. 1989 Mar;177(2):244-9). Monitoring of the change in fluorescence signal is an established method to study the fibril forming potential of peptides and proteins. ThT (purchased from Sigma Aldrich) stock solution is prepared by dissolving the ThT powder in Milli-Q water and filtered to obtain a 0.25 mM solution. The concentration of the solution is measured at 412 nm using an extinction coefficient of 36 mM^−1cm^−1. Test peptides were dissolved at 1 mg/mL in 25 mM sodium acetate buffer pH 4.0. 100 μL aliquot of peptide solution and 5 μL aliquot of ThT solution were placed in a clear bottom black fluorescence 96-well plate. 5 replicates of each test samples were placed in zo the same row of the plate. Buffer was placed in control wells for baseline correction. All empty wells were filled with water to prevent evaporation. The plate was sealed with aluminium seal and placed in fluorescence plate reader and incubated for 6 days at 37 ° C. with intermittent orbital shaking at 500 to 750 rpm. The fluorescence intensity was measured every 30 min using excitation at 444 nm and emission at 480 nm. The fibril forming potential of the test peptides was determined by measuring the average time taken to detect an increase in baseline corrected fluorescence intensity.

Row | Ratio (selectivity hAMYR vs hCTR, ratio of EC50 values at the two receptors) [1] | EC50 [1] [pM] | EC50 [2] [pM] | half-life ([3]; iv) [h] | half-life ([3]; sc) [h] | Time taken to detect increase in fluorescence intensity [4] [h] | Compound
1 | 9 | 149 | 1280 | 6 | 5 | – | CC[C@H](C)[C@H](NC(=O)[C@@H]1CCCN1C(=O)CNC(=O)[C@H](Cc1ccccc1)NC(=O)[C@H](CC(N)=O)NC(=O)C(C)(C)NC(=O)[C@H](CO)NC(=O)[C@H](CO)NC(=O)[C@H](Cc1c[nH]cn1)NC(=O)[C@@H](NC(=O)[C@H](CC(C)C)NC(=O)[C@H](Cc1ccccc1)NC(=O)[C@H](CC(N)=O)NC(=O)[C@H](C)NC(=O)[C@H](CC(C)C)NC(=O)[C@H](CCCNC(=N)N)NC(=O)[C@H](CCC(N)=O)NC(=O)[C@@H](NC(=O)[C@H](C)NC(=O)[C@@H]1CSSC[C@H](NC(=O)[C@@H](N)CCCCNC(=O)CC[C@H](NC(=O)CCCCCCCCCCCCCCCCC(=O)O)C(=O)O)C(=O)N[C@@H](CC(N)=O)C(=O)N[C@@H]([C@@H](C)O)C(=O)N[C@@H](C)C(=O)N[C@@H]([C@@H](C)O)C(=O)N1)[C@@H](C)O)C(C)C)C(=O)N[C@@H](CC(C)C)C(=O)N1CCC[C@H]1C(=O)N1CCC[C@H]1C(=O)N[C@H](C(=O)N[C@@H](CC(N)=O)C(=O)N[C@H](C(=O)NCC(=O)N[C@@H](CO)C(=O)N[C@@H](CCCNC(=N)N)C(=O)N[C@H](C(=O)N[C@@H](Cc1ccc(O)cc1)C(N)=O)[C@@H](C)O)C(C)C)[C@@H](C)O [Peptide 64, K(γE-C18diacid)[CNTATC]ATQRLANFLVHSS(Aib)NFGPILPPTNVGSRTY-amide] (H-K([γGlu-C18 diacid])CNTATCATQRLANFLVHSS[Aib]NFGPILPPTNVGSRTY-NH2; disulfide 2-7; N-terminus assumed)
2 | 10 | 164 | 1570 | 6.3 | 8.5 | – | CC[C@H](C)[C@H](NC(=O)[C@@H]1CCCN1C(=O)CNC(=O)[C@H](Cc1ccccc1)NC(=O)[C@H](CC(N)=O)NC(=O)C(C)(C)NC(=O)[C@H](CO)NC(=O)[C@H](CO)NC(=O)[C@H](Cc1c[nH]cn1)NC(=O)[C@@H](NC(=O)[C@H](CC(C)C)NC(=O)[C@H](Cc1ccccc1)NC(=O)[C@H](CC(N)=O)NC(=O)[C@H](C)NC(=O)[C@H](CC(C)C)NC(=O)[C@H](CCCNC(=N)N)NC(=O)[C@H](CCC(N)=O)NC(=O)[C@@H](NC(=O)[C@H](C)NC(=O)[C@@H]1CSSC[C@H](NC(=O)[C@H](CCCCN)NC(=O)[C@@H](N)CCCCNC(=O)CC[C@H](NC(=O)CCCCCCCCCCCCCCCCC(=O)O)C(=O)O)C(=O)N[C@@H](CC(N)=O)C(=O)N[C@@H]([C@@H](C)O)C(=O)N[C@@H](C)C(=O)N[C@@H]([C@@H](C)O)C(=O)N1)[C@@H](C)O)C(C)C)C(=O)N[C@@H](CC(C)C)C(=O)N1CCC[C@H]1C(=O)N1CCC[C@H]1C(=O)N[C@H](C(=O)N[C@@H](CCCNC(=N)N)C(=O)N[C@H](C(=O)NCC(=O)N[C@@H](CO)C(=O)N[C@@H](CC(N)=O)C(=O)N[C@H](C(=O)N[C@@H](Cc1ccc(O)cc1)C(N)=O)[C@@H](C)O)C(C)C)[C@@H](C)O [Peptide 69, K(γE-C18diacid)K[CNTATC]ATQRLANFLVHSS(Aib)NFGPILPPTRVGSNTY-amide] (H-K([γGlu-C18 diacid])KCNTATCATQRLANFLVHSS[Aib]NFGPILPPTRVGSNTY-NH2; disulfide 3-8)
3 | 23 | 79 | 1820 | – | – | <5 | CC[C@H](C)[C@H](NC(=O)[C@@H]1CCCN1C(=O)CNC(=O)[C@H](Cc1ccccc1)NC(=O)[C@H](CC(N)=O)NC(=O)[C@H](CC(N)=O)NC(=O)[C@H](CO)NC(=O)[C@H](CO)NC(=O)[C@H](Cc1c[nH]cn1)NC(=O)[C@@H](NC(=O)[C@H](CC(C)C)NC(=O)[C@H](Cc1ccccc1)NC(=O)[C@H](CC(N)=O)NC(=O)[C@H](C)NC(=O)[C@H](CC(C)C)NC(=O)[C@H](CCCNC(=N)N)NC(=O)[C@H](CCC(N)=O)NC(=O)[C@@H](NC(=O)[C@H](C)NC(=O)[C@@H]1CSSC[C@H](NC(=O)[C@@H](N)CCCCNC(=O)CC[C@H](NC(=O)CCCCCCCCCCCCCCCCC(=O)O)C(=O)O)C(=O)N[C@@H](CC(N)=O)C(=O)N[C@@H]([C@@H](C)O)C(=O)N[C@@H](C)C(=O)N[C@@H]([C@@H](C)O)C(=O)N1)[C@@H](C)O)C(C)C)C(=O)N[C@@H](CC(C)C)C(=O)N1CCC[C@@H]1C(=O)N1CCC[C@H]1C(=O)N[C@H](C(=O)N[C@@H](CC(N)=O)C(=O)N[C@H](C(=O)NCC(=O)N[C@@H](CO)C(=O)N[C@@H](CC(N)=O)C(=O)N[C@H](C(=O)N[C@@H](Cc1ccc(O)cc1)C(N)=O)[C@@H](C)O)C(C)C)[C@@H](C)O [Peptide 104] (H-K([γGlu-C18 diacid])CNTATCATQRLANFLVHSSNNFGPIL[dP]PTNVGSNTY-NH2; disulfide 2-7; N-terminus assumed)
4 | 22.3 | 3750 | 83800 | – | – | >144 | CC[C@H](C)[C@H](NC(=O)[C@@H]1CCCN1C(=O)CNC(=O)[C@H](Cc1ccccc1)NC(=O)[C@H](CC(N)=O)NC(=O)[C@H](CC(N)=O)NC(=O)[C@H](CO)NC(=O)[C@H](CO)NC(=O)[C@H](Cc1c[nH]cn1)NC(=O)C(C)(C)NC(=O)[C@H](CC(C)C)NC(=O)[C@H](Cc1ccccc1)NC(=O)[C@H](CCN)NC(=O)[C@H](C)NC(=O)[C@H](CC(C)C)NC(=O)[C@H](CCCNC(=N)N)NC(=O)[C@H](CCC(N)=O)NC(=O)[C@@H](NC(=O)[C@H](C)NC(=O)[C@@H]1CSSC[C@H](NC(=O)[C@H](CCCCN)NC(=O)[C@@H](N)CCCCNC(=O)CC[C@H](NC(=O)CCCCCCCCCCCCCCCCC(=O)O)C(=O)O)C(=O)N[C@@H](CC(N)=O)C(=O)N[C@@H]([C@@H](C)O)C(=O)N[C@@H](C)C(=O)N[C@@H]([C@@H](C)O)C(=O)N1)[C@@H](C)O)C(=O)N[C@@H](CC(C)C)C(=O)N1CCC[C@H]1C(=O)N1CCC[C@H]1C(=O)N[C@H](C(=O)N[C@@H](CCC(=O)O)C(=O)N[C@H](C(=O)NCC(=O)N[C@@H](CO)C(=O)N[C@@H](CC(N)=O)C(=O)N[C@H](C(=O)N[C@@H](Cc1ccc(O)cc1)C(N)=O)[C@@H](C)O)C(C)C)[C@@H](C)O [Peptide 156] (H-K([γGlu-C18 diacid])KCNTATCATQRLA[Dab]FL[Aib]HSSNNFGPILPPTEVGSNTY-NH2; disulfide 3-8)
